{
  "source": "patent US6552083B1",
  "about": "“Agents inhibiting chronic rejection reactions after organ transplantation” (Kissei Pharmaceutical Co., Ltd., priority 1999, dated 2003)",
  "key": {"[1]": {"system": "coronary arteries of transplanted heart", "test": "Test for confirming inhibitory activity against intimal thickening in transplant organ after organ transplantation (mouse heart transplantation model)", "type": "in vivo, mice (DBA/2 donor, B10D2 recipient)", "source_text": "(§1) In a transplantation test, 4 to 6-week-old DBA/2 male mice each weighing 20 to 25 g (available from Charles River Laboratories) were used an donor animals, and 4 to 6-week-old B10D2 male mice each weighing 20 to 25 g (ava from Charles River Laboratories) were used as recipient animals. From three days before testing, mice in a control group were fed on a standard diet, and mice in a drug-treated group were given a 0.25% or 0.5% tranilast-containing diet (CE-2). On the day of testing, the heart was excised from a donor mouse and transplanted into the abdomen of a recipient mouse in accordance with the procedures described in the literature (Science, vol. 255, pp. 1125-1127 (1992)). Fourteen and twenty-eight days from the transplantation, the transplanted heart was excised and placed in formalin. Three specimens (thickness: […]) were sliced from different sites of the excised heart. Each slice was stained with Elastica van Geison stain, and the coronary arteries were observed under a microscope to calculate a vascular stenosis ratio according to the following equation: Vascular stenosis ratio (%)=[(area inside of elastica −lumen area)/area inside of elastica]×100"}, "transplanted heart": {"system": "transplanted heart", "test": "Test for evaluating rejection in transplant organ after organ transplantation (infiltration of lymphocytes into the tissue)", "type": "in vivo, mice (DBA/2 donor, B10D2 recipient)", "source_text": "as §1, with “The degree” for “Vascular stenosis ratio (%)=[(area inside”, “rejection in the hearts transplanted to and excited from the recipient mice in the same manner as in Example 1 was evaluated in terms” for “elastica −lumen area)/area inside”, “the degree of infiltration of lymphocytes into the tissue in accordance with the Working Formation of the International Society for Heart and Lung Transplantation and with the following criteria. 0 . . . No infiltration of lymphocytes into the tissue was seen. 1 . . . Slight infiltration of lymphocytes into the tissue was observed. 2 . . . Medium infiltration of lymphocytes into the tissue was observed. 3 . . . Severe infiltration of lymphocytes into the tissue was observed.” for “elastica]×100”"}, "[2]": {"conditions": "0.25% or 0.5% tranilast-containing diet, mouse heart transplantation"}},
  "data": [
    {"smiles": "COc1ccc(/C=C/C(=O)Nc2ccccc2C(=O)O)cc1OC", "note": "[Tranilast, N-(3,4-dimethoxycinnamoyl)anthranililc acid]", "values": [
      {"measurement": "Inhibition of vascular thickening in a transplanted heart (result in words)", "setting": "[1]; [2]", "value": "dose-dependently significantly inhibits vascular thickening in a transplanted heart"},
      {"measurement": "Vascular Stenosis Ratio (%)", "setting": "[1]; 0.25% tranilast-containing feed from 3 days before transplantation, 14-days post-operation, control group 70.3", "value": 55.5, "unit": "%"},
      {"measurement": "Vascular Stenosis Ratio (%)", "setting": "[1]; 0.25% tranilast-containing feed, 28-days post-operation, control group 73.3", "value": 61.9, "unit": "%"},
      {"measurement": "Vascular Stenosis Ratio (%)", "setting": "[1]; 0.5% tranilast-containing feed, 14-days post-operation, control group 70.3", "value": 45.5, "unit": "%"},
      {"measurement": "Vascular Stenosis Ratio (%)", "setting": "[1]; 0.5% tranilast-containing feed, 28-days post-operation, control group 73.3", "value": 47.7, "unit": "%"},
      {"measurement": "Infiltration of lymphocytes into the tissue (result in words)", "setting": "transplanted heart; [2]", "value": "alleviates infiltration of lymphocytes into the tissue"},
      {"measurement": "Degree of rejection", "setting": "transplanted heart; score 0 (no) to 3 (severe) lymphocyte infiltration, 0.25% tranilast-containing feed, 14-days post-operation, control group 2.07", "value": 1.70},
      {"measurement": "Degree of rejection", "setting": "transplanted heart; score 0 to 3, 0.25% tranilast-containing feed, 28-days post-operation, control group 2.88", "value": 2.38},
      {"measurement": "Degree of rejection", "setting": "transplanted heart; score 0 to 3, 0.5% tranilast-containing feed, 14-days post-operation, control group 2.07", "value": 1.80},
      {"measurement": "Degree of rejection", "setting": "transplanted heart; score 0 to 3, 0.5% tranilast-containing feed, 28-days post-operation, control group 2.88", "value": 2.08}
    ]}
  ]
}
